Results as given in patent publication US20190358198A1, “USE OF OVATODIOLIDE FOR PREPARING A COMPOSITION FOR INHIBITING PROTEIN SYNTHESIS OF GASTRIC HELICOBACTER PYPORI” (Syi Biotechnology Co.,Ltd., priority 2018, published 2019).
In brackets after ≈: the same amount, converted by molar mass.

Experiments:
[1] = system: Helicobacter pylori type strain (H. pylori 26695); test: Minimum bacteriostatic concentration by agar-well diffusion (inhibitory rings); format: cell-based; settings: for Inhibitory rings: cultivated two days
Procedure: Different concentrations of ovatodiolide disks are used to cultivate with Helicobacter pylori for two days respectively. Then, the minimum concentrations for inhibiting Helicobacter pylori are determined by using agar-well diffusion. The results are used for analyzing the minimum concentration of ovatodiolide for inhibiting the growth of Helicobacter pylori type strain (H. pylori 26695). […] Based on the experimental results, 10 μM and 20 μM of ovatodiolide have inhibitory rings; the diameters of the inhibitory rings are 10±0.5 mm and 19±0 mm respectively. This proves that the minimum bacteriostatic concentration of ovatodiolide for inhibiting Helicobacter pylori is 10 μM.

[2] = system: extracts of Escherichia coli (E. coli S30); test: In vitro transcription/translation system with pGL3 luciferase readout; format: biochemical; settings: 10 μM; FIG. 1
Procedure: The structure of ovatodiolide is similar to that of the medicines in antibiotics for inhibiting protein generation. In order to understand whether the mechanism of ovatodiolide for inhibiting Helicobacter Pylori is related to protein synthesis, let ovatodiolide and extracts of Escherichia coli (E. coli S30) to take effect for 10 minutes by using in vitro transcription/translation systems. Then, pGL3 luciferase is added for carrying out transcription and translation reaction for 2 hours. Finally, the reacted sample is added with luciferin for it to present color by using Dual-Luciferase Reporter Assay System. Then, microplate luminometer is used to determine the […] in order to find out whether ovatodiolide can inhibit protein synthesis.
Among them, inhibition of 30S subunit using kanamycin and inhibition of […] using erythromycin are used as control groups.

Hp v633 = test: Minimum bactericidal concentration, serial dilution and spread plate method; format: cell-based, Helicobacter pylori; settings: cultivated six hours; multidrug-resistant strain v633
Procedure: (§1) Different concentrations of ovatodiolide are prepared by using serial dilution method, and Helicobacter pylori type strain and multidrug-resistant gastric Helicobacter pylori (v633, v1354) separated from laboratory are cultivated for six hours respectively. Then, ovatodiolide is analyzed by using spread plate method to observe the number of colony growth, and analyze the minimum bactericidal concentrations of ovatodiolide for completely killing Helicobacter pylori type strain and multidrug-resistant strains. Based on the results on Table 2, the minimum bactericidal concentration of ovatodiolide for Helicobacter pylori type strain is 200 μM, and the minimum bactericidal concentrations for multidrug-resistant strains v633 and v1354 are 100 μM.

[3] = system: Hp reference strain 26695; test: as above; format: cell-based, Helicobacter pylori; settings: cultivated six hours; type strain 26695
Procedure: as §1

Hp v1354 = test: as above; format: cell-based, Helicobacter pylori; settings: cultivated six hours; multidrug-resistant strain v1354
Procedure: as §1

[4] = system: protein RpsB in 30S ribosomal subunit; test: Western blot analysis of RpsB content in Helicobacter pylori lysates; format: cell-based; settings: H. pylori cultivated with ovatodiolide of different concentrations for 6 hours; FIG. 2
Procedure: In this embodiment, the process of protein translation has three steps, namely, initiation, elongation and termination of ribosomes. In order to further analyze whether ovatodiolide is effected on ribosomes causing protein synthesis unable to proceed smoothly, western blot analysis is used to determine the content of protein RpsB in 30S ribosomal subunit. Helicobacter pylori is cultivated with ovatodiolide of different concentrations for 6 hours, and extract total cell lysates. Separate total cell lysates by using 10% SDS-PAGE, transfer protein using PVDF membrane, and carry out hybridization with protein using RpsB antibody. Then, detect RpsB antibody using anti-rabbit antibody; finally, a chromogenic reagent is added, and observe results by using the apparatus Azure C400 Biosystems.
FIG. 2 is an expression of 30S ribosomal subunits RpsB analyzed by using western blot analysis. Wherein kanamycin (400 μM) and erythromycin (400 μM) are used as control groups.

C=C1C(=O)O[C@@H]2/C=C(\C)C[C@H]3C=C(CC/C=C(\C)CC[C@@H]12)C(=O)O3 [ovatodiolide]
minimum bacteriostatic concentration ([1]; agar-well diffusion, H. pylori 26695): 10 µM | Inhibitory rings ([1]; ovatodiolide 10 μM): 10±0.5 mm | Inhibitory rings ([1]; ovatodiolide 20 μM): 19±0 mm | inhibition of protein synthesis [2]: more than 50% | Minimum bactericidal concentration (Hp v633): 100 µM (≈ 32.8 µg/mL) | Minimum bactericidal concentration [3]: 200 µM (≈ 65.7 µg/mL) | Minimum bactericidal concentration (Hp v1354): 100 µM (≈ 32.8 µg/mL) | expression of protein RpsB [4]: reduces significantly
